Values of other authors in publication PMC4791286, “Puquitinib mesylate, an inhibitor of phosphatidylinositol 3-kinase p110δ, for treating relapsed or refractory non-Hodgkin's lymphoma” (Oncotarget, 2015).

Assays:
[1] = system: advanced solid tumors and lymphoma; parameters: method as in PMID 22357447; conditions: cited from earlier work
p110δ = system: p110δ; parameters: method as in PMID 20959606; conditions: cited from earlier work
[2] = system: indolent non-Hodgkin lymphoma (iNHL); parameters: method as in PMID 24615776; conditions: cited from earlier work
MCL = system: MCL; parameters: method as in PMID 24615778; conditions: n = 40; cited from earlier work

| SMILES | AST elevations, Grade 2 [1] [n] | AST elevations, Grade 3 [1] [n] | IC50 (p110δ) [nM] | Asymptomatic grade 3 or greater serum transaminase elevations ([2]; iNHL, n = 64) [%] | Response rate ([2]; marginal-zone lymphoma subtype) [%] | Asymptomatic grade 3 or greater serum transaminase elevations (MCL) [%] |
| --- | --- | --- | --- | --- | --- | --- |
| COc1ccc(-c2ccc3ncc4c(c3c2)n(-c2ccc(N3CCNCC3)c(C(F)(F)F)c2)c(=O)n4C)cn1 [BGT226] | 9 | 3 |  |  |  |  |
| CC[C@H](Nc1ncnc2[nH]cnc12)c1nc2cccc(F)c2c(=O)n1-c1ccccc1 [Idelalisib] |  |  | […] | 25 | 33 | 35 |
